Assay results as given in US20080045529A1, “Use Of Thienopyrimidines” (MERCK PATENT GMBH, priority 2003, published 2008).

Assays:
TIE-2 = TIE-2 (Homo sapiens, UniProt Q02763); experiment: Tie-2 kinase flashplate assay (phosphorylation of poly(Glu, Tyr) with 33P-ATP); format: biochemical; conditions: read-out: Inhibition of TIE-2 IC50
Experimental: The TIE-2 tests can be carried out, for example, analogously to the methods indicated in WO 02/44156.
The assay determines the inhibiting activity of the substances to be tested in the phosphorylation of the substrate poly(Glu, Tyr) by Tie-2 kinase in the presence of radioactive ^33P-ATP. The phosphorylated substrate binds to the surface of a “flashplate” microtitre plate during the incubation time. After removal of the reaction mixture, the microtitre plate is washed a number of times and the radioactivity on its surface is subsequently measured. An inhibiting effect of the substances to be measured results in lower radioactivity compared with an undisturbed enzymatic reaction.

RAF = experiment: Inhibition of RAF; format: biochemical

TIE-2, sequence (Q02763 23-1124, species assumed): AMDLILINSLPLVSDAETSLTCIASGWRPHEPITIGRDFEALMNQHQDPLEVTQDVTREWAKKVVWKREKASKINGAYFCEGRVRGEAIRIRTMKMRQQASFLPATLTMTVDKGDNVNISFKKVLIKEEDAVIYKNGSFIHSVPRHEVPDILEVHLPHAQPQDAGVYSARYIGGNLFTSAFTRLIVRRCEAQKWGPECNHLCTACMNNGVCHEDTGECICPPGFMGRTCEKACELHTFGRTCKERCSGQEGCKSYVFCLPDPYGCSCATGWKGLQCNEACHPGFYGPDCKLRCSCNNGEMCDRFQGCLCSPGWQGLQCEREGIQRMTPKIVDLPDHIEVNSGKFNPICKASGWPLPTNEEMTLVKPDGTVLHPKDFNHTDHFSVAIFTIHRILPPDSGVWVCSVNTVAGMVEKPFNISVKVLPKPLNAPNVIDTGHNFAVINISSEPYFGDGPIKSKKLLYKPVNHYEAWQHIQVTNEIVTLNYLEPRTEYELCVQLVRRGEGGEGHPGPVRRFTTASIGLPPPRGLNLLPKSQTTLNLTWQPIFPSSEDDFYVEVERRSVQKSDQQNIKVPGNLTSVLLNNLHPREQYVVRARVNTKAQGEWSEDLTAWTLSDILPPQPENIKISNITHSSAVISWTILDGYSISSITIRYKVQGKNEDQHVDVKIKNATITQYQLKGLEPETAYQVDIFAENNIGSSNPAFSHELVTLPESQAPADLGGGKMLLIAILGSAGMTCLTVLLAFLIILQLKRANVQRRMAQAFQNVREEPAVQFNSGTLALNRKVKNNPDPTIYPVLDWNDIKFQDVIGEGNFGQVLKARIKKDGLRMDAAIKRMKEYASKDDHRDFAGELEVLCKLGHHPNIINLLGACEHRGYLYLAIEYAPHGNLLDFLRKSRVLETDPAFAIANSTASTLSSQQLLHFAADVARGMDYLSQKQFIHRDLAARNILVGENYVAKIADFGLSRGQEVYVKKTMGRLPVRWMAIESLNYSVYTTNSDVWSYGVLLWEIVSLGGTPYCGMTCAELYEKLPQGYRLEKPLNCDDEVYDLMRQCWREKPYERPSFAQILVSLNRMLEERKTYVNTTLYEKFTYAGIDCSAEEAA

IC50 (RAF)	Compound	also measured
	c1cnn(-c2nc(NCc3ccc4c(c3)OCO4)c3c4c(sc3n2)CCCC4)c1	IC50 (TIE-2): 0.15 µM
4.3 µM	c1cc2c(cc1CNc1nc(N3CCOCC3)nc3sc4c(c13)CCCC4)OCO2	
5.3 µM	Cc1sc2nc(N3CCOCC3)nc(NCc3ccc4c(c3)OCO4)c2c1C	
	Cc1cc2c(NCc3ccc4c(c3)OCO4)nc(-n3ccnc3)nc2s1 [Example 2, 2-(imidazol-1-yl)-6-methyl-4-(3,4-methylenedioxybenzylamino)thieno[2,3-d]pyrimidine]	melting point: 248 to 250 °C
